In PubChem BioAssay (NCI):
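Where inhibition never reached the appropriate level, the endpoint shown equals the highest concentration tested. Otherwise, values were interpolated linearly from a five-concentration, 48-hour dose response in 96-well plates. Here, GI50 denotes the concentration required for 50% inhibition of growth. Definition used: TGI = concentration required for complete inhibition of growth.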

Assays:
Assay in all cases: NCI tumour cell line growth inhibition, 48 h
M14 melanoma = test system: M14 melanoma
HOP-92 NSCLC = test system: HOP-92 NSCLC
RPMI-8226 leukemia = test system: RPMI-8226 leukemia
SNB-75 CNS = test system: SNB-75 CNS
UACC-62 melanoma = test system: UACC-62 melanoma
NCI-H23 lung = test system: NCI-H23 lung
UO-31 renal = test system: UO-31 renal
NCI/ADR-RES ovarian = test system: NCI/ADR-RES ovarian
MDA-MB-231 breast = test system: MDA-MB-231 breast
HCC-2998 colon = test system: HCC-2998 colon

Structure (SMILES) | TGI (M14 melanoma) | TGI (HOP-92 NSCLC) | TGI (RPMI-8226 leukemia) | TGI (SNB-75 CNS) | TGI (UACC-62 melanoma) | TGI (NCI-H23 lung) | TGI (UO-31 renal) | GI50 (M14 melanoma) | GI50 (HOP-92 NSCLC) | GI50 (RPMI-8226 leukemia) | GI50 (SNB-75 CNS) | GI50 (NCI/ADR-RES ovarian) | TGI (NCI/ADR-RES ovarian) | GI50 (UACC-62 melanoma) | GI50 (NCI-H23 lung) | GI50 (UO-31 renal) | TGI (MDA-MB-231 breast) | TGI (HCC-2998 colon) | GI50 (MDA-MB-231 breast)
CC(=O)CCCCO | > 100 µM | > 100 µM | > 100 µM | > 100 µM | > 100 µM | > 100 µM | > 100 µM | – | – | – | – | – | – | – | – | – | – | – | –
COc1ccc(-c2ccc(-c3ccc(-c4ccc(C(=N)N)cc4)s3)s2)cc1OC | 11.3 µM | 6.1 µM | 13.4 µM | 31 µM | 48 µM | 6.26 µM | 32.4 µM | 3.16 µM | 2.18 µM | 2.86 µM | 14.4 µM | 2.51 µM | 6.54 µM | 18.4 µM | 2.43 µM | 14.4 µM | – | – | –
C/C(=N\N=C(/[Se])N1CC2CCC(CC2)C1)c1ccccn1 | 0.701 µM | 1.18 µM | 0.22 µM | 1.11 µM | 0.711 µM | 1.57 µM | 1.9 µM | – | – | – | – | – | – | – | – | – | 2.65 µM | 1.5 µM | –
Cc1cc(NS(=O)(=O)c2ccc(NC(=O)c3cccc4c(Nc5ccc(S(=O)(=O)N=C(N)N)cc5)c5ccccc5nc34)cc2)no1 | > 100 µM | > 100 µM | > 100 µM | > 100 µM | > 100 µM | > 100 µM | > 100 µM | – | – | – | – | – | – | – | – | – | – | > 100 µM | –
O=C(c1ccco1)c1c(C(F)(F)F)n([O-])c2ccccc2[n+]1=O | 1.91 µM | 0.986 µM | 1.27 µM | 25.1 µM | 2.61 µM | 7.26 µM | 2.03 µM | 0.613 µM | 0.144 µM | 0.227 µM | 8.36 µM | 0.879 µM | 12.7 µM | 0.536 µM | 1.21 µM | 0.755 µM | 3.6 µM | – | 0.772 µM
NC(N)=NNC(=O)CCCCCCCC(=O)NN=C(N)N | > 100 µM | – | – | – | > 100 µM | > 100 µM | > 100 µM | – | – | – | – | – | – | – | – | – | – | > 100 µM | –
Nc1c(C(=O)Nc2ccccc2)[n+]([O-])c2ccccc2[n+]1[O-] | 32.8 µM | 32.1 µM | > 100 µM | 34 µM | 22.6 µM | 28.8 µM | 42 µM | – | – | – | – | – | – | – | – | – | – | 32.2 µM | –
COc1ccc(/C=C\c2cc(OC)c(OC)c(OC)c2)cc1OC(=O)CCC(=O)O | – | – | > 100 µM | > 100 µM | – | > 100 µM | > 100 µM | – | – | – | – | – | – | – | – | < 0.0001 µM | – | – | –
c1ccc2c(c1)[nH]c1cnc3c4cccnc4[nH]c3c12 | 30.1 µM | 60.7 µM | 58.5 µM | 32.6 µM | 31.1 µM | 62.1 µM | 33 µM | – | – | – | – | – | – | – | – | – | – | 34.5 µM | –
COc1cc2c(cc1O)CC13CCC(=O)N1CCc1cc(OC)c(O)c-2c13 (configuration not stated) | > 68.1 µM | > 68.1 µM | > 68.1 µM | > 68.1 µM | > 68.1 µM | > 68.1 µM | > 68.1 µM | – | – | – | – | – | – | – | – | – | – | > 68.1 µM | –
CC(=O)OC1(C)C(=O)OC1(C)C(C)=O (configuration not stated) | > 100 µM | > 100 µM | > 100 µM | > 100 µM | > 100 µM | > 100 µM | > 100 µM | – | – | – | – | – | – | – | – | – | – | > 100 µM | –
Cc1ccc(-c2cc(C3=CC(=O)C=CC3=O)n(-c3ccc(S(N)(=O)=O)cc3)n2)cc1 | 80.9 µM | > 100 µM | 70.2 µM | – | > 100 µM | > 100 µM | > 100 µM | 31.8 µM | 35.6 µM | 6.17 µM | – | – | – | 39.5 µM | 32.9 µM | > 100 µM | 72.8 µM | – | 20.6 µM
CCN(c1ccc(Br)cc1)c1c(Br)c(=O)nc2ccccn12 | > 100 µM | > 100 µM | > 100 µM | > 100 µM | > 100 µM | > 100 µM | > 100 µM | – | – | – | – | – | – | – | – | – | – | – | –
CCCCOC(=O)NC(=O)c1cn(CCSCCOC(=O)NCCCCCCNC(=O)OCCSCCn2cc(C(=O)NC(=O)OCCCC)c(=O)[nH]c2=O)c(=O)[nH]c1=O | > 100 µM | 71.8 µM | > 100 µM | > 100 µM | > 100 µM | 94.5 µM | > 100 µM | – | – | – | – | – | – | – | – | – | – | > 100 µM | –
CC(C)(C)C(=O)ON1N=NC2C3CC(OCc4ccccc4)(OCc4ccccc4)C(O3)C21 (configuration not stated) | 85.7 µM | 27.2 µM | 49.4 µM | 69.5 µM | 44.9 µM | 43.4 µM | 49.7 µM | – | – | – | – | – | – | – | – | – | – | 31.2 µM | –
C1OC1CO[C@@H]1CO[C@H]2[C@@H]1OC[C@H]2OCC1CO1 (some centres not stated) | > 100 µM | > 100 µM | > 100 µM | > 100 µM | > 100 µM | > 100 µM | > 100 µM | – | – | – | – | – | – | – | – | – | – | > 100 µM | –
NC(=O)C(c1ccccc1)N1CCOCC1 (configuration not stated) | > 100 µM | > 100 µM | > 100 µM | > 100 µM | > 100 µM | > 100 µM | > 100 µM | – | – | – | – | – | – | – | – | – | – | – | –
